Values joined by “and” are separate entries in the source; they are usually repeats but may differ in a detail not shown here. Identical values can stand only once.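 Step 1: Grow cells in 96-well plates. Step 2: Expose to compound for 48 hours at 5 concentrations. Step 3: Interpolate endpoints linearly; if unreached, use highest concentration. GI50 = concentration required for 50% inhibition of growth. Definition used: TGI = concentration required for complete inhibition of growth.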
How the values were obtained:
Test in all cases: NCI tumour cell line growth inhibition, 48 h
HOP-18 NSCLC = test system: HOP-18 NSCLC
DLD-1 colon = test system: DLD-1 colon
DMS 273 small cell lung = test system: DMS 273 small cell lung
MDA-N = test system: MDA-N
XF 498 CNS = test system: XF 498 CNS
HS 578T breast = test system: HS 578T breast
SNB-78 CNS = test system: SNB-78 CNS
P388 leukemia = test system: P388 leukemia
RXF-631 renal = test system: RXF-631 renal
LXFL 529 NSCLC = test system: LXFL 529 NSCLC

O=C(Nc1ccccc1)c1c(O)[nH]c(=S)[nH]c1=O
GI50 (HOP-18 NSCLC): 17.3 µM | TGI (HOP-18 NSCLC): 118 µM and 184 µM | GI50 (DLD-1 colon): 109 µM | TGI (DLD-1 colon): 90 µM and > 250 µM | TGI (DMS 273 small cell lung): 78.9 µM | TGI (MDA-N): 125 µM | GI50 (XF 498 CNS): 8.86 µM and 61.7 µM | TGI (XF 498 CNS): 19.5 µM and 155 µM | TGI (HS 578T breast): 74.3 µM | GI50 (SNB-78 CNS): 97.7 µM | TGI (SNB-78 CNS): 124 µM and > 250 µM | GI50 (P388 leukemia): 67 µM | TGI (P388 leukemia): 57.7 µM and > 250 µM

O=C(O)CCC(NC(=O)c1ccc(Nc2nc3ccccc3nc2-c2cccs2)cc1)C(=O)O (centres undefined)
TGI (HOP-18 NSCLC): > 100 µM | TGI (DLD-1 colon): > 100 µM | TGI (DMS 273 small cell lung): > 100 µM | TGI (XF 498 CNS): > 100 µM | TGI (SNB-78 CNS): > 100 µM | TGI (RXF-631 renal): > 100 µM | TGI (LXFL 529 NSCLC): > 100 µM

CC1(C(=O)O)CCC[C@@]2(C)C1CC[C@@]1(C)c3cocc3CCC21 (some centres undefined)
TGI (HOP-18 NSCLC): > 100 µM | TGI (DLD-1 colon): > 100 µM | TGI (DMS 273 small cell lung): > 100 µM | TGI (XF 498 CNS): > 100 µM | TGI (SNB-78 CNS): > 100 µM | TGI (RXF-631 renal): > 100 µM | TGI (LXFL 529 NSCLC): > 100 µM

Cc1cc(N(CCC#N)CCC#N)ccc1N=Nc1ccc(S(N)(=O)=O)cc1
TGI (HOP-18 NSCLC): > 100 µM | TGI (DLD-1 colon): > 100 µM | TGI (DMS 273 small cell lung): > 100 µM | TGI (XF 498 CNS): > 100 µM | TGI (SNB-78 CNS): > 100 µM | TGI (RXF-631 renal): > 100 µM | TGI (LXFL 529 NSCLC): > 100 µM
